According to patent US9604933B2, “Pyrazolochalcones as potential anticancer agents” (COUNCIL OF SCIENTIFIC AND INDUSTRIAL RESEARCH, priority 2013, dated 2017):

Legend:
CCRF-CEM = assay: NCI SRB cytotoxicity, leukemia CCRF-CEM; format: cell-based; conditions: Homo sapiens, 48 h exposure
Experimental: (§1) The pyrazolochalcones (7e, 8e, 10e, 11e, 12e, 13e and 8f) have been tested against fifty nine human tumor cell lines derived from nine cancer types (leukemia, non-small cell lung cancer, colon cancer, CNS cancer, melanoma, ovarian cancer, renal cancer, prostate cancer and breast cancer) as per the NCI protocol. For each compound, dose response curves for individual cell lines have been measured at a minimum of five concentrations at 10 fold dilutions. A protocol of 48 h continuous drug exposure has been used, and a sulforhodamine B (SRB) protein assay has been used to estimate cell viability or growth. The concentration for 50% cell growth inhibition (GI50), 50% cell death (LC50, 50% growth) and total cell growth inhibition (TGI, 0% growth) values were tabulated (Table-1). DMSO was used as control to calculate the values of GI50, LC50 and TGI. The compounds 7e, 8e, 10e, 11e, 12e, 13e and 8f has been evaluated for their in vitro cytotoxicity in […] cell lines from nine human cancer types of leukemia (K-562, SR), non-small cell lung (Hop-62, NCI-H226, NCI-H522), colon (HCT-116, HCT-15, HCC-2998), CNS (SF-539), melanoma (SK-MEL-5, UACC-62, M14), ovarian (IGROV1), renal (A498), prostate (PC3) and breast (BT-549, MDA-MB-435, HS578T) origin. The results are expressed as percent of cell growth determined relative to that of untreated control cells (Table 2).

K-562 = assay: NCI SRB cytotoxicity, leukemia K-562; format: cell-based; conditions: Homo sapiens, K562, 48 h exposure
Experimental: as §1

SR = assay: NCI SRB cytotoxicity, leukemia SR; format: cell-based; conditions: Homo sapiens, 48 h exposure
Experimental: as §1

HOP92 = assay: NCI SRB cytotoxicity, non-small cell lung HOP92; format: cell-based; conditions: Homo sapiens, HOP-92, 48 h exposure
Experimental: as §1

NCI-H460 = assay: NCI SRB cytotoxicity, non-small cell lung NCI-H460; format: cell-based; conditions: Homo sapiens, 48 h exposure
Experimental: as §1

NCI-H522 = assay: NCI SRB cytotoxicity, non-small cell lung NCI-H522; format: cell-based; conditions: Homo sapiens, 48 h exposure
Experimental: as §1

COLO-205 = assay: NCI SRB cytotoxicity, colon COLO-205; format: cell-based; conditions: Homo sapiens, 48 h exposure
Experimental: as §1

HCC-2998 = assay: NCI SRB cytotoxicity, colon HCC-2998; format: cell-based; conditions: Homo sapiens, 48 h exposure
Experimental: as §1

HCT-116 = assay: NCI SRB cytotoxicity, colon HCT-116; format: cell-based; conditions: Homo sapiens, 48 h exposure
Experimental: as §1

HT29 = assay: NCI SRB cytotoxicity, colon HT29; format: cell-based; conditions: Homo sapiens, HT-29, 48 h exposure
Experimental: as §1

SF-268 = assay: NCI SRB cytotoxicity, CNS SF-268; format: cell-based; conditions: Homo sapiens, 48 h exposure
Experimental: as §1

SF-539 = assay: NCI SRB cytotoxicity, CNS SF-539; format: cell-based; conditions: Homo sapiens, 48 h exposure
Experimental: as §1

SNB-19 = assay: NCI SRB cytotoxicity, CNS SNB-19; format: cell-based; conditions: Homo sapiens, 48 h exposure
Experimental: as §1

SNB-75 = assay: NCI SRB cytotoxicity, CNS SNB-75; format: cell-based; conditions: Homo sapiens, 48 h exposure
Experimental: as §1

LOX IMVI = assay: NCI SRB cytotoxicity, melanoma LOX IMVI; format: cell-based; conditions: Homo sapiens, 48 h exposure
Experimental: as §1

MALME-3M = assay: NCI SRB cytotoxicity, melanoma MALME-3M; format: cell-based; conditions: Homo sapiens, 48 h exposure
Experimental: as §1

M14 = assay: NCI SRB cytotoxicity, melanoma M14; format: cell-based; conditions: Homo sapiens, 48 h exposure
Experimental: as §1

MDA-MB-435 = assay: NCI SRB cytotoxicity, melanoma MDA-MB-435; format: cell-based; conditions: Homo sapiens, Melanoma panel MDA-MB-435, 48 h exposure
Experimental: as §1

SK-MEL-2 = assay: NCI SRB cytotoxicity, melanoma SK-MEL-2; format: cell-based; conditions: Homo sapiens, 48 h exposure
Experimental: as §1

SK-MEL-28 = assay: NCI SRB cytotoxicity, melanoma SK-MEL-28; format: cell-based; conditions: Homo sapiens, 48 h exposure
Experimental: as §1

UACC-257 = assay: NCI SRB cytotoxicity, melanoma UACC-257; format: cell-based; conditions: Homo sapiens, 48 h exposure
Experimental: as §1

UACC-62 = assay: NCI SRB cytotoxicity, melanoma UACC-62; format: cell-based; conditions: Homo sapiens, 48 h exposure
Experimental: as §1

OVCAR-3 = assay: NCI SRB cytotoxicity, ovarian OVCAR-3; format: cell-based; conditions: Homo sapiens, 48 h exposure
Experimental: as §1

OVCAR-4 = assay: NCI SRB cytotoxicity, ovarian OVCAR-4; format: cell-based; conditions: Homo sapiens, 48 h exposure
Experimental: as §1

OVCAR-8 = assay: NCI SRB cytotoxicity, ovarian OVCAR-8; format: cell-based; conditions: Homo sapiens, 48 h exposure
Experimental: as §1

SK-OV-3 = assay: NCI SRB cytotoxicity, ovarian SK-OV-3; format: cell-based; conditions: Homo sapiens, 48 h exposure
Experimental: as §1

CAKI-1 = assay: NCI SRB cytotoxicity, renal CAKI-1; format: cell-based; conditions: Homo sapiens, 48 h exposure
Experimental: as §1

SN12C = assay: NCI SRB cytotoxicity, renal SN12C; format: cell-based; conditions: Homo sapiens, 48 h exposure
Experimental: as §1

PC-3 = assay: NCI SRB cytotoxicity, prostate PC-3; format: cell-based; conditions: Homo sapiens, 48 h exposure
Experimental: as §1

DU-145 = assay: NCI SRB cytotoxicity, prostate DU-145; format: cell-based; conditions: Homo sapiens, 48 h exposure
Experimental: as §1

HS 578T = assay: NCI SRB cytotoxicity, breast HS 578T; format: cell-based; conditions: Homo sapiens, 48 h exposure
Experimental: as §1

Non-small cell lung = assay: NCI SRB cytotoxicity, non-small cell lung panel average; format: cell-based, human; conditions: average of cell lines; for LC50: read-out: Log10 LC50 (concentration in mol/L causing 50% cell death) (converted)
Experimental: as §1
(§2) Each cancer type represents the average of six to eight different cancer cell lines.

Melanoma = assay: NCI SRB cytotoxicity, melanoma panel average; format: cell-based, human; conditions: average of cell lines; for LC50: read-out: Log10 LC50 (concentration in mol/L causing 50% cell death) (converted)
Experimental: as §1, §2

SF-295 = assay: NCI SRB cytotoxicity, CNS SF-295; format: cell-based; conditions: Homo sapiens, 48 h exposure
Experimental: as §1

U251 = assay: NCI SRB cytotoxicity, CNS U251; format: cell-based; conditions: Homo sapiens, U-251, 48 h exposure
Experimental: as §1

[1] = Homo sapiens, read-out: Log10 GI50 (concentration in mol/L causing 50% growth inhibition) (converted)

| Structure (SMILES) | GI50 (CCRF-CEM) [µM] | GI50 (K-562) [µM] | GI50 (SR) [µM] | GI50 (HOP92) [µM] | GI50 (NCI-H460) [µM] | GI50 (NCI-H522) [µM] | GI50 (COLO-205) [µM] | GI50 (HCC-2998) [µM] | GI50 (HCT-116) [µM] | GI50 (HT29) [µM] | GI50 (SF-268) [µM] | GI50 (SF-539) [µM] | GI50 (SNB-19) [µM] | GI50 (SNB-75) [µM] | GI50 (LOX IMVI) [µM] | GI50 (MALME-3M) [µM] | GI50 (M14) [µM] | GI50 (MDA-MB-435) [µM] | GI50 (SK-MEL-2) [µM] | GI50 (SK-MEL-28) [µM] | also measured |
| --- | --- | --- | --- | --- | --- | --- | --- | --- | --- | --- | --- | --- | --- | --- | --- | --- | --- | --- | --- | --- | --- |
| COc1ccc(C(=O)/C=C/c2cc(-c3cc(OC)c(OC)c(OC)c3)n[nH]2)cc1 [7e, (E)-1-(4-methoxyphenyl)-3-(3-(3,4,5-trimethoxyphenyl)-1H-pyrazol-5-yl)prop-2-en-1-one] | 1.42 | 2.32 | 0.34 | 1.06 | 1.72 | 1.47 | 1.73 | 1.78 | 1.73 | 1.97 | 1.99 | 1.62 | 1.51 | 1.49 | 1.58 | 1.86 | 2.2 | 2.2 | 4.14 | 2.12 | GI50 (UACC-257): 1.75 µM; GI50 (UACC-62): 1.85 µM; GI50 (OVCAR-3): 1.74 µM; GI50 (OVCAR-4): 2.2 µM; GI50 (OVCAR-8): 2.43 µM; GI50 (SK-OV-3): 3.99 µM; GI50 (CAKI-1): 2.34 µM; GI50 (SN12C): 1.81 µM; GI50 (PC-3): 1.51 µM; GI50 (DU-145): 1.43 µM; GI50 (HS 578T): 3.6 µM; GI50 (Non-small cell lung; [1]): 1.82 µM; LC50 (Non-small cell lung; Homo sapiens): 21.9 µM; Log10 TGI (concentration in mol/L causing total growth inhibition (0% growth)) (Non-small cell lung): −5.36 mol/L; GI50 (Melanoma; [1]): 2.09 µM; LC50 (Melanoma; Homo sapiens): 36.3 µM; Log10 TGI (concentration in mol/L causing total growth inhibition) (Melanoma): −5.32 mol/L |
| COc1ccc(C(=O)/C=C/c2cc(-c3ccc4c(c3)OCO4)n[nH]2)cc1OC [8f, (E)-3-(3-(benzo[d][1,3]dioxol-5-yl)-1H-pyrazol-5-yl)-1-(3,4-dimethoxyphenyl)prop-2-en-1-one] | 2.52 | 2.47 | 1.27 | 2.16 | 1.81 | 1.82 | 3.84 | 4.99 | 2.43 | 2.98 | 2.53 | 1.91 | 3.2 | 1.98 | 1.97 | 7.32 | 6.36 | 3.03 | 6.93 | 5.76 | GI50 (SF-295): 2.51 µM; GI50 (U251): 1.58 µM; GI50 (UACC-257): 7.06 µM; GI50 (UACC-62): 4.1 µM; GI50 (OVCAR-3): 2.02 µM; GI50 (OVCAR-4): 2.11 µM; GI50 (OVCAR-8): 2.15 µM; GI50 (SK-OV-3): 3.97 µM; GI50 (CAKI-1): 1.9 µM; GI50 (SN12C): 3.25 µM; GI50 (PC-3): 2.5 µM; GI50 (DU-145): 1.8 µM; GI50 (HS 578T): 2.6 µM; LC50 (Non-small cell lung; Homo sapiens): 513 µM; Log10 GI50 (concentration in mol/L causing 50% growth inhibition) (Non-small cell lung): −5.6 mol/L; Log10 TGI (concentration in mol/L causing total growth inhibition (0% growth)) (Non-small cell lung): −5.08 mol/L; LC50 (Melanoma; Homo sapiens): 1050 µM; Log10 GI50 (concentration in mol/L causing 50% growth inhibition) (Melanoma): −5.79 mol/L; Log10 TGI (concentration in mol/L causing total growth inhibition) (Melanoma): −4.80 mol/L |
